Source: US12479834B2, “Phenol compound or salt thereof” (TAIHO PHARMACEUTICAL CO., LTD., priority 2019, dated 2025)

How the values were obtained:
[1] = biological target: T1, KRAS G12C mutant (Homo sapiens, UniProt P01116, G12C); assay: Inhibition of SOS1-mediated nucleotide (GDP-GTP) exchange reaction of KRAS G12C mutant, BODIPY FL GDP fluorescence; format: biochemical; details: preincubated 25° C. 4 hours with 25 nM KRAS G12C bound with BODIPY FL GDP; SOS1 100 nM, GppNHp 1 μM, 30 minutes
T1 construct: 50 μM G12C K-Ras4B (1-169) protein and 1 mM BODIPY® FL GDP; His tag (N, cleaved yes); made in house; host or cells: E. coli BL21 (DE3)
Excerpt: (§1) SOS1 protein was expressed in E. coli strain BL21 (DE3) by synthesizing a nucleotide sequence encoding the amino acid sequence represented by GenPept ID NP_005624 as a sequence optimized for E. coli by use of GeneArt Technology (Life Technologies Corp.) such that the protein was N-terminally His-tagged and fused with a TEV protease recognition sequence (ENLYFQG). The expressed His-tagged SOS1 (564-1049) was purified through a Ni column, then cleaved at its tag with N-terminally His-tagged TEV protease, and passed through a Ni column again to recover a flow-through fraction to obtain the protein.
Each compound was studied for its inhibitory effect on the exchange reaction of GDP into GppNHp in BODIPY® FL bound with the KRAS G12C mutant by fluorescence measurement using the G12C K-Ras4B (1-169) protein and the SOS1 protein.
For the preparation of the KRAS G12C mutant bound with BODIPY® FL GDP, first, 50 μM G12C K-Ras4B (1-169) protein and 1 mM BODIPY® FL GDP (Invitrogen Corp., G22360) were incubated for 1 hour in a buffer solution (20 mM Tris-HCl (pH 7.5), 50 mM NaCl, and 1 mM DTT) in ice in the presence of 2.5 mM EDTA. Then, MgCl2 was added thereto at a final concentration of 10 mM, then the mixture was incubated at room temperature for 30 minutes, and then, the protein was passed through a NAP-5 column for removal of free nucleotides and used for compound evaluation.
For the measurement of the inhibitory activity of compounds against nucleotide exchange reaction, first, the compound of the present invention was serially diluted with DMSO. Subsequently, the serially diluted solution of the compound of the present invention in DMSO (final concentration of DMSO: 5%) and the KRAS G12C mutant (25 nM) bound with BODIPY® FL GDP were added into a reaction buffer solution (20 mM Tris-HCl (pH 7.5), 100 mM NaCl, 1 mM MgCl2, 2 mM DTT, and 0.1% Tween 20), and the mixture was preincubated at 25° C. for 4 hours. Then, Son of Sevenless Homolog 1 (SOS1, amino acid region: 564-1049) and GppNHp (GMPPNP, Jena Bioscience GmbH, NU-401-50) were added thereto at final concentrations of 100 nM and 1 μM, respectively, and the mixture was reacted for 30 minutes. The change in fluorescence intensity of BODIPY® FL (excitation wavelength: 485 nm, fluorescence wavelength: 520 nm) between immediately after the start of reaction and after 30 minutes from the start of reaction was standardized, and then, the compound concentration at which 50% inhibition was achieved was calculated as IC50 (nM) when the signal value for only DMSO was defined as 0% inhibition and the signal value for no addition of GppNHp was defined as 100% inhibition.

[2] = biological target: T2, G12C K-Ras4B (1-169) (Homo sapiens, UniProt P01116, G12C); assay: Binding to KRAS G12C mutant, compound binding rate by LC-MS; details: final compound concentration 2 μM, 1 μM protein, 2 hours at 25° C.
T2 construct: G12C K-Ras4B (1-169) protein, which was a KRAS G12C mutant; His tag (N, cleaved yes); made in house; host or cells: E. coli BL21 (DE3)
Excerpt: as §1, with “K-Ras4B (1-169)” for “SOS1”, “NP_004976” for “NP_005624”, “K-Ras4B (1-169)” for “SOS1 (564-1049)”, “fraction, which was further purified by anion-exchange chromatography” for “fraction”, “protein. G12C K-Ras4B (1-169) protein, which was a KRAS G12C mutant, was obtained in the same way as in the K-Ras4B(1-169) protein except that glycine at position 12 of the amino acid sequence represented by GenPept ID NP_004976 was mutated to cysteine.” for “protein.”
The K-Ras4B (1-169) protein and the G12C K-Ras4B (1-169) protein were mixed and diluted with a buffer solution (1×TBS and 0.1 mM TCEP) to prepare a protein solution containing 1 μM each of the proteins. Each test compound was dissolved at 10 mM in DMSO and further diluted 10-fold with DMSO to make a 1 mM solution. Then, the solution was diluted 5-fold with DMSO to make a 200 μM solution. The 200 μM solution was further diluted 5-fold to make a […] solution. 1 μL of the 40 μM test compound was added to 19 μL of the 1 μM protein solution such that the final compound concentration was 2 μM. The mixture was stored for 2 hours in an incubator of 25° C., and the reaction was terminated by the addition of 80 μL of a 1×TBS solution containing 0.2% formic acid, followed by LC-MS measurement.
The LC-MS measurement was performed by using Xevo G2-S Q-Tof manufactured by Waters Corp., performing reverse-phase chromatography with a desalting column, and obtaining mass spectra of positive ions by electrospray. For the mass spectra, spectra of polyvalent ions were collectively converted to molecular weights by the MaxEnt technique using OpenLynx software, and then, a compound binding rate was obtained from the ratio of […].
The binding rates of test compounds having a final compound concentration of 2 μM for G12C K-Ras4B (1-169) are shown in the table below. The binding rate for G12C K-Ras4B (1-169) is rated “A” for 80% or more, “B” for 60% or more and less than 80%, “C” for 40% or more and less than 60%, “D” for 20% or more and less than 40%, and “E” for less than 20%.

Row | SMILES | IC50 [1] [nM] | binding rate for G12C K-Ras4B (1-169) [2]
1 | C=CC(=O)N1CC(NC(=O)c2cnc(C(C)Nc3cc(C(C)(C)C)c(Cl)c(F)c3O)n2C)C1 (stereo not drawn) [Example 82, N-(1-Acryloylazetidin-3-yl)-2-(1-((5-(tert-butyl)-4-chloro-3-fluoro-2-hydroxyphenyl)amino)ethyl)-1-methyl-1H-imidazole-5-carboxamide] | 1040 | B (60% or more and less than 80%)
2 | C=CC(=O)N1CC(NC(=O)c2cnc(C(O)c3cc(C(C)(C)C)c(Cl)cc3O)n2C)C1 (stereo not drawn) [Example 98, N-(1-Acryloylazetidin-3-yl)-2-((5-(tert-butyl)-4-chloro-2-hydroxyphenyl) (hydroxy)methyl)-1-methyl-1H-imidazole-5-carboxamide] | 205 | B (60% or more and less than 80%)
3 | C=CC(=O)N1CC(NC(=O)c2ccc(CNc3cc(C4CC4(F)F)c(Cl)cc3O)o2)C1 (stereo not drawn) [Example 51, N-(1-Acryloylazetidin-3-yl)-5-(((4-chloro-5-(2,2-difluorocyclopropyl)-2-hydroxyphenyl)amino)methyl)furan-2-carboxamide] | 763 | C (40% or more and less than 60%)
4 | C=CC(=O)N1CC(NC(=O)c2ccc(CNc3cc(C(C)(C)C)c(C#N)cc3O)o2)C1 [Example 67, N-(1-Acryloylazetidin-3-yl)-5-(((5-(tert-butyl)-4-cyano-2-hydroxyphenyl)amino)methyl)furan-2-carboxamide] | 1030 | C (40% or more and less than 60%)
5 | C=CC(=O)N1CC(NC(=O)c2ncc(CNc3cc(C(C)(C)C)c(Cl)cc3O)o2)C1 [Example 12, N-(1-Acryloylazetidin-3-yl)-5-(((5-(tert-butyl)-4-chloro-2-hydroxyphenyl)amino)methyl)oxazole-2-carboxamide] | 954 | C (40% or more and less than 60%)
6 | C=CC(=O)N1CC(NC(=O)c2cnc(CNc3cc(C4CC4(F)F)c(Cl)cc3O)n2C)C1 (stereo not drawn) [Example 55, N-(1-Acryloylazetidin-3-yl)-2-(((4-chloro-5-(2,2-difluorocyclopropyl)-2-hydroxyphenyl)amino)methyl)-1-methyl-1H-imidazole-5-carboxamide] | 122 | C (40% or more and less than 60%)
7 | C=CC(=O)N1CC(NC(=O)c2ccc(CNc3ccc(Cl)c(C(C)(C)C)c3)o2)C1 [Reference Example2, N-(1-Acryloylazetidin-3-yl)-5-(((3-(tert-butyl)-4-chlorophenyl)amino)methyl)furan-2-carboxamide, reference compound] | > 10000 | E (less than 20%)
8 | C=CC(=O)N1CC(NC(=O)c2ccc(CNc3cc(C(C)(C)C)c(Cl)cc3O)s2)C1 [Example 7, N-(1-Acryloylazetidin-3-yl)-5-(((5-(tert-butyl)-4-chloro-2-hydroxyphenyl)amino)methyl)thiophene-2-carboxamide] | 1510 | A (80% or more)
9 | C=CC(=O)N1CC(NC(=O)c2cnc(CNc3nc(C(C)(C)C)c(Cl)cc3O)n2C)C1 [Example 83, N-(1-Acryloylazetidin-3-yl)-2-(((6-(tert-butyl)-5-chloro-3-hydroxypyridin-2-yl)amino)methyl)-1-methyl-1H-imidazole-5-carboxamide] | 23 | B (60% or more and less than 80%)
10 | C=CC(=O)N1CC(NC(=O)c2cn(C)c(CNc3cc(C(C)(C)C)c(Cl)cc3O)n2)C1 [Example 25, N-(1-Acryloylazetidin-3-yl)-2-(((5-(tert-butyl)-4-chloro-2-hydroxyphenyl)amino)methyl)-1-methyl-1H-imidazole-4-carboxamide] | 4680 | E (less than 20%)
11 | C=CC(=O)N1CC(NC(=O)c2c(C)nc(CNc3cc4c(cc3O)CCC4(C)C)n2C)C1 [Example 72, N-(1-Acryloylazetidin-3-yl)-2-(((6-hydroxy-3,3-dimethyl-2,3-dihydro-1H-inden-5-yl)amino)methyl)-1,4-dimethyl-1H-imidazole-5-carboxamide] | 164 | A (80% or more)
12 | C=CC(=O)N1CC(NC(=O)c2ccc(C(C)Nc3cc(C(C)(C)C)c(Cl)cc3O)o2)C1 (stereo not drawn) [Example 79, N-(1-Acryloylazetidin-3-yl)-5-(1-((5-(tert-butyl)-4-chloro-2-hydroxyphenyl)amino)ethyl)furan-2-carboxamide] | 3900 | D (20% or more and less than 40%)
13 | C=CC(=O)N1CC(NC(=O)c2cnc(CNc3cc(S(F)(F)(F)(F)F)c(Cl)cc3O)n2C)C1 [Example 58, N-(1-Acryloylazetidin-3-yl)-2-(((4-chloro-2-hydroxy-5-(pentafluoro-λ6-sulfaneyl)phenyl)amino)methyl)-1-methyl-1H-imidazole-5-carboxamide] | 995 | D (20% or more and less than 40%)
14 | C=CC(=O)N1CC(NC(=O)c2nc(CNc3cc(C(C)(C)C)c(Cl)cc3O)cs2)C1 [Example 10, N-(1-Acryloylazetidin-3-yl)-4-(((5-(tert-butyl)-4-chloro-2-hydroxyphenyl)amino)methyl)thiazole-2-carboxamide] | 67 | A (80% or more)
15 | C=CC(=O)N1CC(NC(=O)c2c(C(F)(F)F)nc(CNc3cc(C(C)(C)C)c(C)cc3O)n2C(C)C)C1 [Example 77, N-(1-Acryloylazetidin-3-yl)-2-(((5-(tert-butyl)-2-hydroxy-4-methylphenyl)amino)methyl)-1-isopropyl-4-(trifluoromethyl)-1H-imidazole-5-carboxamide] | 240 | D (20% or more and less than 40%)
